In US20240182456A1, “2-((4-((S)-2-(4-CHLORO-2-FLUOROPHENYL)-2-METHYLBENZO[D][1,3]DIOXOL-4-YL)PIPERIDIN-1-YL)METHYL)-1-(((S)-OXETAN-2-YL)METHYL)-1H-IMIDAZOLE DERIVATIVES AS ACTIVATORS OF THE GLP1 RECEPTOR FOR THE TREATMENT OF OBESITY” (Novartis AG, priority 2021, published 2024):

Experiments:
Type in all cases: cell-based
human GLP1R (hGLP1R) [1] = biological target: T1, human GLP1R (hGLP1R) (Homo sapiens, UniProt P43220); test: Human GLP1R β-arrestin recruitment assay (PathHunter); set-up: insert synthesized by GeneArt 93-0164 (cells); 93-0491 (vector bundle); conditions: CHO-hGLP1R-β-arrestin cells; for EC50: mean n=2, read-out: Beta-Arrestin assay EC50 Mean; for Emax: relative to GLP1(7-36), read-out: Beta-Arrestin assay Emax
T1 sequence (P43220 24-463): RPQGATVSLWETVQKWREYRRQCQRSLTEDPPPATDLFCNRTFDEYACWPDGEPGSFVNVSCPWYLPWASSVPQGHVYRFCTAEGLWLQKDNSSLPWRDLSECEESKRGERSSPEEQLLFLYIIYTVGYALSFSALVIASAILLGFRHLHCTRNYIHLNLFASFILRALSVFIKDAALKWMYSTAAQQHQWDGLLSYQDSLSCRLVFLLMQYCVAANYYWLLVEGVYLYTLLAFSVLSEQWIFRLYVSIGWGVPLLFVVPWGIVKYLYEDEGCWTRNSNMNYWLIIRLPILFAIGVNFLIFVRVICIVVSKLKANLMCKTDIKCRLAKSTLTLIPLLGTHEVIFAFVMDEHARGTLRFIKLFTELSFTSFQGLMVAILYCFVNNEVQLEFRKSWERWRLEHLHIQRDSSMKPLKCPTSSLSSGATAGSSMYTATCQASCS
Protocol: (§1) Compounds 1 to 31 were tested in the following cellular assays that measure the intracellular cAMP concentration, beta-arrestin recruitment and receptor internalization. The cAMP is generated by the activation of GLP1R. The cAMP data obtained is shown in Table 1 (where S.E.M. is included, mean n=3 independent experiments+/−S.E.M). Beta-arrestin is recruited upon activation of GLP1R and the data obtained are shown in Table 2 (mean n=2 independent experiments, +/−S.D). The extent to which the GLP1R is internalized into the cell and away from the plasma membrane following activation is also shown in Table 2 (mean n=2 independent experiments, +/−S.D). EC50 for each assay is defined as the concentration of the compound that leads to half of the maximum response (after baseline correction). Emax is defined as the maximum response observed for the test compound, normalized to the maximum response observed for the endogenous ligand (GLP1(7-36)) to GLP1R.
The extent to which agonists recruited β-arrestin was measured using the PathHunter® β-arrestin assay (DiscoverX). This assay measures binding of β-arrestin to the receptor using an enzyme complementation approach. […] When β-arrestin is recruited to the receptor the enzyme becomes active and generates luminescence in the presence of a chemiluminescent substrate (PathHunter® Detection Kit, DiscoverX cat #93-0001). Luminescence can be measured on a relevant detector. CHO-hGLP1R-β-arrestin cells stably overexpressing hGLP1R with Prolink tag and β-arrestin with EA tag were seeded at 20 μL per well in white 384-well poly-D-Lysine coated plates (Greiner Bio One, cat #781945) in Plating Reagent 2 (DiscoverX, cat #93-0563R2A), and incubated overnight at 37° C., 5% CO2 with humidity. The following day, agonists were prepared at 5 times the final required concentration. To generate triplicate dose response curves, compounds were serially diluted 3-fold in assay buffer (HBSS, 10 mM Hepes and 0.1% BSA), then added to the cell assay plate to a final volume of 25 μL and final top concentrations starting at 30 μM. In the same plate and assay buffer as the tested compounds, were EC100 control wells containing GLP1 (7-36) peptide (Bachem, cat #H-6795) at a final concentration of 1 μM and also EC0 control wells containing no compound. The plate was incubated at 37° C., 5% CO2 with humidity for 2 h after adding the compounds to the cells. Then the detection reagent was prepared (19 parts cell assay buffer, 5 parts substrate reagent 1 and 1 part substrate reagent 2 as per manufacturers recommendations, DiscoverX cat #93-0001), and 12 μL were added per well to the cell assay plate. The plate was incubated for an additional hour in the dark at RT. Luminescence was then measured with an Envision 2104 Multilabel reader with “TRF Light Unit, 337 nm” (Perkin Elmer) using the Ultra-Sensitive protocol setting “384-well US luminescence detector” with the 384-well luminescence aperture, 0.1 sec per well. β-arrestin recruitment was calculated and expressed as percent of the GLP1 (7-36) EC100 control wells: [(sample signal−mean EC0 signal)/(mean EC100 of GLP1 (7-36) signal−mean EC0 signal)]*100 using Microsoft Excel. Curve fitting for EC50 determinations was performed using GraphPad Prism. The 4-parameter logistic model, Hill slope was used: Y=Bottom+(Top−Bottom)/(1+10^((Log EC50−X)*Hill Slope)), where Y is the functional response; X is the compound concentration; bottom is A0 or the minimum value (at 0 dose); top is Ainf or the maximum value (at infinite dose); EC50 is the point of inflection (i.e. the point on the sigmoid shaped curve halfway between A0 and Ainf). The EC50 value was calculated in μM. Emax is the maximal activity detected within the concentration range, derived from the fitted curve relative to GLP1(7-36). […]

human GLP1R (hGLP1R) [2] = biological target: T1, human GLP1R (hGLP1R); test: Human GLP1R cAMP agonist assay (GloSensor); conditions: HEK293-SNAP-hGLP1R-GloSensor cells
Outline: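 HEK293 cells stably expressing SNAP-tagged hGLP1R and the GloSensor-22F cAMP luciferase biosensor, pre-loaded 2 h with substrate, then exposed 12 min at rt to compound (30–0.06 μM, 0.5 mM IBMX, 0.1% BSA). Luminescence normalized to 2 nM GLP1(7-36); EC50 and Emax from 4-parameter logistic fit.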

human GLP1R = human GLP1R (Homo sapiens, UniProt P43220); test: Human GLP1R DERET internalization assay; conditions: HEK293-SNAP-hGLP1R-GloSensor cells
Chain of human GLP1R (P43220 24-463): as above
Protocol: as §1
The extent to which agonists internalize the human GLP1R was determined based on an optimized version of a RealTime FRET-based ‘DERET’ (Dissociation Enhanced Resonance Energy Transfer) assay. The technology relies on labeling of the SNAP-tagged GPCR with a SNAP-Lumi-Terbium (donor fluorophore, Cisbio, cat #SSNPTBD). The compounds are incubated with the cells over-expressing the GPCR of interest in the presence of an excess of fluorescein (acceptor fluorophore). When the GPCR is on the cell surface, the donor signal is quenched by the acceptor and the donor/acceptor ratio is low. As the GPCR internalizes, the donor signal is no longer quenched, and the acceptor is no longer excited so the donor/acceptor ratio increases.
HEK293-SNAP-hGLP1R-GloSensor cells (stably overexpressing SNAP-tagged hGLP1R) were seeded overnight in white 384-well poly-D-Lysine coated plates (Greiner Bio One, cat #781945) in regular DMEM growth medium (Gibco, cat #11965-092, 10% heat-inactivated FBS, 10 mM HEPES, 1× penicillin/streptomycin, 0.5 mg/mL geneticin (Gibco, cat #10131-035) and 0.25 mg/mL hygromycin B (Invitrogen, cat #10687010). On the assay day, cell medium was removed and 100 nM SNAP-Lumi-Tb reagent was added in Opti-MEM solution. The cells were incubated at 37° C. for 1 h. Cells were washed using a plate washer in assay buffer [1×HBSS (10× Gibco, cat #14065-056), 20 mM Hepes (Gibco, cat #15630-080), 1 mM CaCl2 (Fluka, cat #21114-1L), 1 mM MgCl2 (Ambion, cat #AM9530G) pH7.4], and 20 μL buffer with 0.1% BSA was added to each well. After leaving cells to equilibrate for ˜15 min at 37° C., 10 μL of Fluorescein (sodium salt, Sigma, cat #F6377, diluted in buffer) was added at 25 μM final concentration. To generate triplicate dose response curves, compounds were serially diluted 3-fold in assay buffer, then added to the cell assay plate to a final volume of 40 μL and final top concentrations starting at 30 μM. In the same plate and assay buffer as the tested compounds, a GLP1 (7-36) peptide (Bachem, cat #H-6795) control curve was included at a final top concentration of 1 μM in order to establish EC100. EC0 wells with buffer only were also included. The plate FRET fluorescence was measured immediately using a Perkin Elmer Envision with LANCE/DELFIA D400 single mirror, excitation filter X320, and emission filters M615_203 (donor emission) and M515 (acceptor emission), and then measured every 30 min. […] Plates were kept at 37° C. between reads. Data was expressed as the ratio of donor/acceptor emissions using Microsoft Excel and plotted in GraphPad Prism. In order to determine EC50 and Emax for internalization, data was calculated and expressed as percent of the GLP1 (7-36) EC100 control wells: [(sample signal−mean EC0 signal)/(mean EC100 of GLP1 (7-36) signal−mean EC0 signal)]*100 using Microsoft Excel. Curve fitting for EC50 determinations was performed using GraphPad Prism. The 4-parameter logistic model, Hill slope was used:
Y=Bottom+(Top−Bottom)/(1+10^((Log EC50−X)*Hill Slope)), […]

Row | Structure (SMILES) | EC50 (human GLP1R (hGLP1R) [1]) | Emax (human GLP1R (hGLP1R) [1]) | Emax (human GLP1R (hGLP1R) [2]; cAMP, normalized to GLP1(7-36) maximum response, read-out: Emax mean) | EC50 (human GLP1R (hGLP1R) [2]; intracellular cAMP, mean n=3 where SEM is given) | EC50 (human GLP1R; mean n=2) | Emax (human GLP1R; relative to GLP1(7-36))
1 | Cc1nc(CN2CCC(c3cccc4c3O[C@@](C)(c3ccc(Cl)cc3F)O4)CC2)n(C[C@@H]2CCO2)c1C(=O)O [Compound C-3, 2-((4-((S)-2-(4-chloro-2-fluorophenyl)-2-methylbenzo[d][1,3]dioxol-4-yl)piperidin-1-yl)methyl)-4-methyl-1-(((S)-oxetan-2-yl)methyl)-1H-imidazole-5-carboxylic acid] | > 30000 nM | 0% | 108% | 1.65 nM |  | 
2 | C[C@]1(c2ccc(Cl)cc2F)Oc2cccc(C3CCN(Cc4nc5ccc(C(=O)O)cc5n4C[C@@H]4CCO4)CC3)c2O1 [Reference compound, 2-((4-((S)-2-(4-chloro-2-fluorophenyl)-2-methylbenzo[d][1,3]dioxol-4-yl)piperidin-1-yl)methyl)-1-(((S)-oxetan-2-yl)methyl)-1H-benzo[d]imidazole-6-carboxylic acid, reference compound] | 123 nM | 27% |  |  | 15 nM | 87%
